Experimental data taken from US7872128B2, “Benzisoxazole and isoxazolo-pyridine compounds and method of use” (Amgen Inc., priority 2006, dated 2011).
pIC50: −log10 of the molar value.

These compounds were tested on SCF or GM-CSF-stimulated UT-7 cells (assay: SCF and GM-CSF stimulated UT7 proliferation/survival assay). Conditions: Homo sapiens, UT7, 72 h, 3 days, ATP readout.
Format: cell-based
Description: SCF and GM-CSF Stimulated UT7 Proliferation/Survival Assay:
The purpose of this assay is to test the general anti-proliferative/cytotoxic effect of small molecule compounds on SCF or GM-CSF-stimulated UT-7 cells. Preventing SCF stimulated proliferation/survival is consistent with an on-mechanism effect whereas inhibition of GM-CSF driven proliferation/survival is indicative of off-target effects. UT-7 is a factor dependent human megakaryoblastic leukemia cell line that can be grown in either IL-3, GM-CSF, EPO or SCF (these cells have been confirmed to carry wild type c-kit receptor). Cells are maintained in growth media (IMDM, 10% HI-FBS, 1×PGS, 1 ng/mL GM-CSF). To measure SCF or GM-CSF-induced proliferation, cells are washed and re-suspended to 5e4c/mL in assay media (RPMI 1640/4% HI-FBS, 1×PGS) and plated at 50 uL/well for 2500c/well. Small molecule compounds are first diluted in 100% DMSO, then diluted 1:4 in RT assay media. 5 Microliters of 11×SCF (55 ng/mL) or 11×GM-CSF (11 ng/mL) in assay media plus 1 μL of diluted drug are added to the cell plates. The treated cells are incubated in a 37° C. humidified incubator with 5% CO2 for 3 days. The amount of ATP is then measured as a surrogate marker for cell viability. This is accomplished by adding 50 μL of Perkin Elmer ATP 1 step reagent (as per instructed in the reagent manual, Cat. No. 6016739), incubating at RT for 15 min and reading the luminescence with a Perkin Elmer Topcount NXT™HTS (model c384) plate reader. The amount of SCF or GM-CSF stimulated viable cells in the presence of compound compared with in the presence of vehicle alone (HI control) is calculated using the formula: % control (POC)=(cpd−average LO)/(average HI−average LO)*100. Data (consisting of POC and inhibitor concentration in μM) is fitted to a 4-parameter equation (y=A+((B−A)/(1+((x/C)^D))), where A is the minimum y (POC) value, B is the maximum y (POC), C is the x (cpd concentration) at the point of inflection and D is the slope factor) using a Levenburg-Marquardt non-linear regression algorithm.
In the case of O=C(Nc1cncnc1)c1c(Cl)ccc2c(Nc3ccc(C(F)(F)F)cc3)noc12 [Example 5, 6-chloro-N-(pyrimidin-5-yl)-3-(4-(trifluoromethyl)phenylamino)benzo[d]isoxazole-7-carboxamide], the pIC50 was at least 7.70. Compound CCCCc1ccc(Nc2noc3c(C(=O)Nc4cncnc4)c(Cl)ccc23)cc1 [Example 18, 3-(4-butylphenylamino)-6-chloro-N-(pyrimidin-5-yl)benzo[d]isoxazole-7-carboxamide] has a pIC50 of at least 7.70. CCCc1ccc(Nc2noc3c(C(=O)Nc4cncnc4)c(Cl)ccc23)cc1 [Example 17, 6-chloro-3-(4-propylphenylamino)-N-(pyrimidin-5-yl)benzo[d]isoxazole-7-carboxamide] gave a pIC50 of at least 7.70.

The compounds below were run against T1, c-kit kinase enzyme (Homo sapiens, UniProt P10721) (assay: C-kit Homogeneous Time Resolved Fluorescent (HTRF) kinase assay). Conditions: read-out: average IC50 value, inhibition of the c-kit kinase enzyme.
T1 construct: c-kit (6.25 μM) (catalytic domain, N-terminal GST tagged, unphosphorylated); GST (N)
T1 sequence (P10721 589-937 limits assumed): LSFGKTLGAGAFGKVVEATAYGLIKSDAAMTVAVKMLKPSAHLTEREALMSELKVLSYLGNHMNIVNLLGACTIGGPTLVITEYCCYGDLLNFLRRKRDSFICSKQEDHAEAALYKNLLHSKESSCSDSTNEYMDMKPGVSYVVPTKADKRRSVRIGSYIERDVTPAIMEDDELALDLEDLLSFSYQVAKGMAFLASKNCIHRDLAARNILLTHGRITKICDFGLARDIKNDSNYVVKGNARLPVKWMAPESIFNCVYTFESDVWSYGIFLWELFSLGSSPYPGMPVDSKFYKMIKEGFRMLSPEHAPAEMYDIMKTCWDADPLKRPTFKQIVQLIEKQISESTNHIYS
Format: biochemical
Description: C-kit-Homogeneous Time Resolved Fluorescent (HTRF) Kinase Assay:
The purpose of this assay is to measure the inhibition of c-kit enzyme activity (autophosphorylation and phosphorylation of substrate) by small molecule test compounds. The c-kit HTRF assay begins with c-kit-catalyzed phosphorylation of biotinylated peptide Her-2 (N-GGMEDIYFEFMGGKKK-C) in the presence of ATP. The c-kit enzyme reaction is comprised of 1 μL of compound in 100% DMSO, 15 μL of 2× substrate mix (50 μM ATP and 2 μM biotinylated Her-2) and 15 μL of 2× c-kit (6.25 μM) (catalytic domain, N-terminal GST tagged, unphosphorylated) in 4 mM DTT all diluted in enzyme buffer (25 mM HEPES pH 7.5, 12.5 mM NaCl, 50 mM MgCl, 0.05% BSA). The reaction incubates for 90 min at RT. 160 Microliters of detection mixture containing 0.47 μg/mL steptavidin allophycocyanin and 29.7 pM europylated anti-phosphotyrosine Ab (PT66, Perkin Elmer) in HTRF buffer (100 mM Hepes pH 7.5, 100 mM NaCl, 0.1% BSA, 0.05% Tween 20) is then added to stop the reaction, by diluting out the enzyme as well as to enable quantitation of phosphorylated Her-2. After 3 h at RT, the detection reaction is read in a Packard Discovery™ (model BD1000) plate reader. The wells are excited with coherent […] light and the ratio of delayed ([…] post excitation) emissions at […] (native europium fluorescence) and 665 nm (europium fluorescence transferred to allophycocyanin—an index of substrate phosphorylation) is determined. The proportion of substrate phosphorylated in the kinase reaction in the presence of compound compared with that phosphorylated in the presence of DMSO vehicle alone (HI control) is calculated using the formula: % control (POC)=(cpd−average LO)/(average HI—average LO)*100. Data (consisting of POC and inhibitor concentration in μM) is fitted to a 4-parameter equation (y=A+((B−A)/(1+((x/C)^D))), where A is the minimum y (POC) value, B is the maximum y (POC), C is the x (compound concentration) at the point of inflection and D is the slope factor) using a Levenburg-Marquardt non-linear regression algorithm.
In the case of O=C(Nc1cncnc1)c1c(Cl)ccc2c(Nc3ccc(OC(F)(F)F)cc3)noc12 [Example 15, 6-chloro-N-(pyrimidin-5-yl)-3-(4-(trifluoromethoxy)phenylamino)benzo[d]isoxazole-7-carboxamide], the pIC50 was at least 7.70. With O=C(Nc1cncnc1)c1c(Cl)ccc2c(Nc3cc(F)cc(C(F)(F)F)c3)noc12 [Example 12, 6-chloro-3-(3-fluoro-5-(trifluoromethyl)phenylamino)-N-(pyrimidin-5-yl)benzo[d]isoxazole-7-carboxamide] the pIC50 was at least 7.70. Work on O=C(Nc1cncnc1)c1c(Cl)ccc2c(Nc3ccc(F)c(C(F)(F)F)c3)noc12 [Example 10, 6-chloro-3-(4-fluoro-3-(trifluoromethyl)phenylamino)-N-(pyrimidin-5-yl)benzo[d]isoxazole-7-carboxamide] yielded a pIC50 of at least 7.70. With CCCc1ccc(Nc2noc3c(C(=O)Nc4cncnc4)c(Cl)ccc23)cc1 [Example 17, 6-chloro-3-(4-propylphenylamino)-N-(pyrimidin-5-yl)benzo[d]isoxazole-7-carboxamide] the pIC50 was at least 7.70.
